Experimental data reported in ChEMBL document CHEMBL1141511, “4,4-Dimethyl-1,2,3,4-tetrahydroquinoline-based PPARalpha/gamma agonists. Part I: synthesis and pharmacological evaluation” (Bioorg Med Chem Lett, 2008).
Active and inactive are the calls of the source. The rule behind the calls is not given here.

Columns and labels:
[1] = molecular target: T1, Peroxisome proliferator-activated receptor alpha (Homo sapiens, UniProt Q07869); assay: (§1) Agonist activity at human PPARalpha by GAL4 transactivation assay; format: functional
T1 sequence (Q07869 whole entry): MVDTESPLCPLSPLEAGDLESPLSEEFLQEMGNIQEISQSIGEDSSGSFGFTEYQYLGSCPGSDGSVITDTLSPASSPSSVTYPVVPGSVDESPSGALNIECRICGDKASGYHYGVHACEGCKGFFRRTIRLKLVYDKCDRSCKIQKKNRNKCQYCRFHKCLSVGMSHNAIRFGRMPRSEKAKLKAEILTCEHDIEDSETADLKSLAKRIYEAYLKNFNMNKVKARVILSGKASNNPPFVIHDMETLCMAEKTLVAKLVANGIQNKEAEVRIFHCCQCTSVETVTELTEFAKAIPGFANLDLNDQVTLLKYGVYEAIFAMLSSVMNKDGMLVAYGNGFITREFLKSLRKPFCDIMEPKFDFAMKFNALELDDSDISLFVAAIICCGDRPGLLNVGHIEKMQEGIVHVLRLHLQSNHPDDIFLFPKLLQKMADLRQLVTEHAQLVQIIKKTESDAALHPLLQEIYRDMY

[2] = molecular target: T2, Peroxisome proliferator-activated receptor gamma (Homo sapiens, UniProt P37231)
T2 sequence (P37231 whole entry): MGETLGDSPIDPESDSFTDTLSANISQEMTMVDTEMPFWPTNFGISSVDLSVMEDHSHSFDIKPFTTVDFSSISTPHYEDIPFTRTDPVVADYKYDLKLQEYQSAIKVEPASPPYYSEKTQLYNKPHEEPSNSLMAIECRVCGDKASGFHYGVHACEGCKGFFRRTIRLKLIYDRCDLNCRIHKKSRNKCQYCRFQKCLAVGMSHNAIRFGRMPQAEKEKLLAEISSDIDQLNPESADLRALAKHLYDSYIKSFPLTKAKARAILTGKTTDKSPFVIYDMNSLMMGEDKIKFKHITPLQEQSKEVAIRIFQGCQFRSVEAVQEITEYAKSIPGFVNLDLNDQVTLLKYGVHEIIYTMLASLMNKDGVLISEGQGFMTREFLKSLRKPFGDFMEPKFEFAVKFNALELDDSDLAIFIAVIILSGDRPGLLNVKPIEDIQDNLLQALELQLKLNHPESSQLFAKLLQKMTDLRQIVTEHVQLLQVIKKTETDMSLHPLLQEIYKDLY

[3] = molecular target: T3, Peroxisome proliferator-activated receptor alpha (Homo sapiens) (UniProt Q07869); assay: as §1; format: functional
T3 sequence (whole entry): T1 sequence (Q07869 whole entry)

Compound	EC50 [1] [nM]	Ki [2] [nM]	Activity [3]
CCO[C@@H](Cc1ccc(OCCc2ccc(OS(C)(=O)=O)cc2)cc1)C(=O)O [TESAGLITAZAR]	414	18	–
COC(=O)C(Cc1ccc(OCCN2CCC(C)(C)c3cc(C(=O)c4ccccc4)ccc32)cc1)C(=O)OC	–	10000	inactive
CCOC(=O)C(Cc1ccc(OCCN2CCC(C)(C)c3cc(/C(=N\O)c4ccccc4)ccc32)cc1)OCC (stereo not drawn)	189	618	–
COC(=O)C(Cc1ccc(OCCN2CCC(C)(C)c3cc(/C(=N\O)c4ccccc4)ccc32)cc1)C(=O)OC	–	10000	inactive
